From patent EP0363353B1, “FUSED BENZAZEPINES” (SCHERING CORPORATION, priority 1987, dated 1989)

Key:
[1] = molecular target: T1, dopamine D-1 receptor (Rattus norvegicus, UniProt P18901); assay: Competitive inhibition assay, displacement of 3H-SCH 23390; type: binding
T1 construct: Striatal tissue was excised, pooled, and homogenized; from tissue; host or cells: rat striatum (Sprague-Dawley), washed membrane pellet
From the text: (§1) A methodology for characterization of D-1 and D-2 receptor binding and an interpretation of the data are described by Billard et al., Life Sciences 35, 1885 (1984) in which the binding of the benzazepine (R)-(+)-8-chioro-2,3,4,5-tetrahydro-3-methyi-5-phenyi-1H-3-benzazepin-7-oi hemimaleate (SCH 23390) to the dopamine D-1 receptor is characterized. A selectivity for D-1 receptor binding as compared to D-2 receptor binding is believed to confer the therapeutic advantage of avoiding troublesome and potentially irreversible neurological side effects associated with D-2 receptor occupancy. […]
(§2) Polypropylene incubation tubes received 100 µl of the individual test compounds at various concentrations dissolved or suspended in 0.05 M Tris, pH 7.4 containing 4 mg/ml methylcellulose, 100 µl of a solution of^3H-SCH 23390 in Tris buffer (final reaction mixture concentration =0.3 nM) or 100 µl of a solution of ^3H-spiperone in Tris buffer (final concentration = 0.2 nM) and 800 µl of tissue suspension (ca. 3 mg/assay). […] The filters were-transferred to scintillation vials, equilibated with 10 ml of scintillant (Scintosol, Isolab, Inc.) for 16 hours at 25°C and the radioactivity determined in a liquid scintillation counter. […]

[2] = molecular target: T2, D-2 receptor (Rattus norvegicus, UniProt P61169); assay: Competitive inhibition assay, displacement of 3H-spiperone; type: binding; conditions: 3H-spiperone 0.2 nM; rat striatal tissue homogenate; 37°C for 15 minutes
T2 construct: Striatal tissue was excised, pooled, and homogenized; from tissue; host or cells: rat striatum (Sprague-Dawley), washed membrane pellet
From the text: as §1, §2

T2 sequence (P61169 whole entry): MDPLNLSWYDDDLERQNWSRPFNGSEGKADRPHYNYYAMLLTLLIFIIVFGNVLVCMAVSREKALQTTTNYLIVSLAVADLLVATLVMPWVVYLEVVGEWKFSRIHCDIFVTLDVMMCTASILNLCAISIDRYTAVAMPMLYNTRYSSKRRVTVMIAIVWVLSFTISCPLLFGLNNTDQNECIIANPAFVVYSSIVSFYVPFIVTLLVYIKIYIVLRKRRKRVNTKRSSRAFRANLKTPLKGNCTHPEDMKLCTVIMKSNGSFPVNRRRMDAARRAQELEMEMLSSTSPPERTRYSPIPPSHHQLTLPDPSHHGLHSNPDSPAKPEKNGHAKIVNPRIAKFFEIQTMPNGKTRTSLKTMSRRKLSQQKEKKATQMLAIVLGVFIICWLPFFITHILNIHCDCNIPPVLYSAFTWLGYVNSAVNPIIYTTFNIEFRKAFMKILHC
T1 sequence (P18901 whole entry): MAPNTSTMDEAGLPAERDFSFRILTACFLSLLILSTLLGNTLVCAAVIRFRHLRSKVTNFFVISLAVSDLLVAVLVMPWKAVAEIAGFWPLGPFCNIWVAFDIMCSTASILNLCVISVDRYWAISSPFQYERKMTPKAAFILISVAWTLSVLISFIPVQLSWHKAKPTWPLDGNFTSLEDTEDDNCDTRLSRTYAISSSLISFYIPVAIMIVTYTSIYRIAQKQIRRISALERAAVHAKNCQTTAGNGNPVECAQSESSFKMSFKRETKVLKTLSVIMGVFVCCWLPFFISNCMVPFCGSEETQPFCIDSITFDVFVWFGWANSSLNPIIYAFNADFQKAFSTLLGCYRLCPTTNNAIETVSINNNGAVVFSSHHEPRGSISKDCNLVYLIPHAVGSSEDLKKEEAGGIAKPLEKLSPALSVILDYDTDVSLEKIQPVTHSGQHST

| SMILES | Ki [1] [nM] | Ki [2] [nM] |
| --- | --- | --- |
| Oc1cc2c(cc1Cl)CCN[C@H]1Cc3ccccc3[C@H]21 (racemic) | 7 | 1580 |
| CN1CCc2cc(Cl)c(O)cc2[C@H]2c3ccccc3C[C@@H]21 (racemic) [Trans-6-methyl-5,6,7,7a,8,12b-hexahydro-2-hydroxy-3-chloro-benz[d]indeno-[2,1-b]azepine] | 7 | 12000 |
